Experimental data from patent publication US20140335186A1, “METHODS AND COMPOSITIONS FOR ENHANCING CD4+ REGULATORY T CELLS” (Selecta Biosciences, Inc., priority 2013, published 2014).

Tested on: CD4+ OTII cells (CD25+Fox3p+ regulatory T cell phenotype)
Test: Induction of CD4+ regulatory T cells: CD4+ OTII cells transferred into SJL mice, flow cytometry of popliteal lymph nodes
Type: in vivo, mouse
Details: s.c. hind limbs on days 1 and 5, popliteal lymph nodes on day 10
Source text: In order to monitor the determine the effect of immunosuppressant attached to synthetic nanocarriers on the development of CD4+ regulatory T cells, CD4+ T cells were purified from the transgenic mouse strain OTII using negative selection by magnetic-activated cell sorting (MACS). OTII mice express a T cell receptor specific for the chicken ovalbumin peptide OVA323-339. Following isolation, 4×10^6 CD4+ OTII cells were transferred into SJL mice congenically expressing the pan-leukocyte marker CD45.1 (Ptprc^a) (SJL-Prprc^a/BoyAiTac).
On day 10, 5 days following the second administration of the indicated treatment, the animlas were sacrified and the popliteal lymph nodes that drain the site of injection were harvested to analyze developmental status and quantify the CD4+ OTII cells that had been transferred into the SJL mice by flow cytometry.

“fOPII.323: free chicken ovalbumin peptide OVA323-339 (KISQAVHAAHAEINEAG; UniProt P01012 323-339, looked up, fragment)” was tested, and the “proportion of transferred OTII cells with regulatory T cell phenotype (CD25+Fox3p+), FIG. 1” value was “detectable but not statisitically significant increase”.
